The source of these data is PubChem BioAssay AID2045 (NMMLSC, 2009).

The assay addresses Ras-related protein Rab-2A (Canis lupus familiaris) (UniProt P61105). The assay can be described thus: Rab2A fluorescent GTP competition potency – biochemical, pyrazoline series, Bodipy-FL-GTP, flow cytometry, multiplex, SAR follow-up (AID 2045). The note with it: Bead-based flow cytometry, Bodipy-FL-GTP binding to Rab2; Ki calculated from EC50.

Ras-related protein Rab-2A (Canis lupus familiaris), sequence (P61105 whole entry, looked up): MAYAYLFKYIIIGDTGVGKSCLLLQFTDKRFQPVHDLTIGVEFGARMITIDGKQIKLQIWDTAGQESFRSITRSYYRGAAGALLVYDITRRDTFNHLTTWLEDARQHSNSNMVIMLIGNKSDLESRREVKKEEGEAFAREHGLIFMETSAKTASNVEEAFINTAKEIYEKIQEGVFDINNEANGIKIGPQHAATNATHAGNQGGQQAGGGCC

For the compound `COc1ccc(C2=NN(c3cccc(F)c3)C(c3ccc(OC)cc3)C2)cc1` (configuration not stated), the Ki is 60 nM. Regarding `COc1ccc(C2=NN(c3ccc(S(N)(=O)=O)cc3)C(c3ccc(OC)cc3)C2)cc1` (configuration not stated), the Ki is 110 nM.

As a reminder, the Ki is the equilibrium dissociation constant of an inhibitor or competing ligand from its target.
